Experimental data reported in patent publication US6664241B2, “Water-soluble amide derivatives of polyene macrolides and preparation and uses thereof” (Micrologix Biotech Inc., priority 2000, dated 2003).
≈ marks a conversion by molar mass, not a printed value.

Legend:
[1] = Maximum non-lethal dose (NLD), single intravenous dose in mice; format: in vivo, Swiss-Webster male mice; settings: test compounds as aspartate salts in 5% mannitol, AmB as FUNGIZONE
Method: A variety of the compounds synthesized as described in Section 5, supra, were tested in various in vivo assays, as described below. The results of the various assays are provided in TABLE 3, presented at the end of this section. In all of the in vivo assays described, the test compounds, in the form of the aspartate salts, were formulated in an aqueous vehicle (5% mannitol in sterile water; OSMITROL, Baxter Healthcare, Deerfield, Ill.), followed by appropriate dilutions. The formulations were prepared fresh before dosing.
AmB and AME were also tested for comparison. For AmB, the commercially available FUNGIZONE (Bristol-Meyers Squibb Co.) was used. Reported values are based upon the weight of the AmB active ingredient, not on the basis of the weight of the FUNGIZONE powder. AME was formulated in OSMITROL as described for the test compounds.
Maximum non-lethal dose (NLD) data were obtained for selected compounds. A single intravenous dose was administered to each of four mice (Swiss-Webster male mice; Simonsen Laboratories, Gilroy, Calif.) in several groups. The doses selected were based upon the NLDs of compounds of similar structures. After review of findings, higher or lower doses were administered and a NLD was determined. The results are tabulated in TABLE 3, below (NLD Acute Mice). The values for AmB and AME are provided for comparison

C. albicans = assay: Minimum Inhibitory Concentrations (MICs) against C. albicans, NCCLS M27-A broth dilution; format: cell-based; settings: Candida albicans, read-out: MIC
Method: For each compound synthesized, Minimum Inhibitory Concentrations (MICs) against C. albicans were determined as described in Reference Method for Broth Dilution Antifungal Susceptibility Testing of Yeasts, Approved Standard, NCCLS document M27-A (ISBN 1-56238-328-0), NCCLS, 940 West Valley Road, Suite 1400, Wayne, Pa. 19087, 1997.

Compound	NLD acute mice [1]	MIC (C. albicans)
CC1[C@H](C)OC(=O)C[C@H](O)C[C@H](O)CC[C@@H](O)[C@H](O)C[C@H](O)C[C@]2(O)C[C@H](O)C(C(=O)N3CCN(C)CC3)C(C[C@@H](OC3O[C@H](C)[C@@H](O)[C@H](NC[C@@]4(O)OC[C@@H](O)[C@@H](OC5O[C@H](CO)[C@H](O)[C@H](O)[C@H]5O)[C@@H]4O)[C@@H]3O)/C=C/C=C/C=C/C=C/C=C/C=C/C=C/[C@H](C)[C@H]1O)O2 (some centres unmarked) [Compound 146]	<7.5 mg/kg	2 µg/mL (≈ 1.5 µM)
CC1[C@H](C)OC(=O)C[C@H](O)C[C@H](O)CC[C@@H](O)[C@H](O)C[C@H](O)C[C@]2(O)C[C@H](O)C(C(=O)N[C@H]3C(O)O[C@H](CO)[C@H](O)[C@@H]3O)C(C[C@@H](OC3O[C@H](C)[C@@H](O)[C@H](N)[C@@H]3O)/C=C/C=C/C=C/C=C/C=C/C=C/C=C/[C@H](C)[C@H]1O)O2 (some centres unmarked) [Compound 124]	16 mg/kg	1 µg/mL (≈ 0.921 µM)
CC1[C@H](C)OC(=O)C[C@H](O)C[C@H](O)CC[C@@H](O)[C@H](O)C[C@H](O)C[C@]2(O)C[C@H](O)C(C(=O)NCC(O)CO)C(C[C@@H](OC3O[C@H](C)[C@@H](O)[C@H](NC[C@@]4(O)OC[C@@H](O)[C@@H](OC5O[C@H](CO)[C@@H](O)[C@H](O)[C@H]5O)[C@@H]4O)[C@@H]3O)/C=C/C=C/C=C/C=C/C=C/C=C/C=C/[C@H](C)[C@H]1O)O2 (some centres unmarked) [Compound 119]	–	8 µg/mL (≈ 6.05 µM)
CC1[C@H](C)OC(=O)C[C@H](O)C[C@H](O)CC[C@@H](O)[C@H](O)C[C@H](O)C[C@]2(O)C[C@H](O)C(C(=O)NCCN3CCCCC3)C(C[C@@H](OC3O[C@H](C)[C@@H](O)[C@H](NC[C@@]4(O)OC[C@@H](O)[C@@H](OC5O[C@H](CO)[C@@H](O)[C@H](O)[C@H]5O)[C@@H]4O)[C@@H]3O)/C=C/C=C/C=C/C=C/C=C/C=C/C=C/[C@H](C)[C@H]1O)O2 (some centres unmarked) [Compound 120]	–	8 µg/mL (≈ 5.89 µM)
CC1[C@H](C)OC(=O)C[C@H](O)C[C@H](O)CC[C@@H](O)[C@H](O)C[C@H](O)C[C@]2(O)C[C@H](O)C(C(=O)NCCc3cccs3)C(C[C@@H](OC3O[C@H](C)[C@@H](O)[C@H](NC[C@@]4(O)OC[C@@H](O)[C@@H](OC5O[C@H](CO)[C@@H](O)[C@H](O)[C@H]5O)[C@@H]4O)[C@@H]3O)/C=C/C=C/C=C/C=C/C=C/C=C/C=C/[C@H](C)[C@H]1O)O2 (some centres unmarked) [Compound 121]	–	8 µg/mL (≈ 5.89 µM)
CC1[C@H](C)OC(=O)C[C@H](O)C[C@H](O)CC[C@@H](O)[C@H](O)C[C@H](O)C[C@]2(O)C[C@H](O)C(C(=O)NCCc3ccccn3)C(C[C@@H](OC3O[C@H](C)[C@@H](O)[C@H](NC[C@@]4(O)OC[C@@H](O)[C@@H](O)[C@@H]4O)[C@@H]3O)/C=C/C=C/C=C/C=C/C=C/C=C/C=C/[C@H](C)[C@H]1O)O2 (some centres unmarked) [Compound 101]	–	4 µg/mL (≈ 3.36 µM)
CC1[C@H](C)OC(=O)C[C@H](O)C[C@H](O)CC[C@@H](O)[C@H](O)C[C@H](O)C[C@]2(O)C[C@H](O)C(C(=O)N3CCOCC3)C(C[C@@H](OC3O[C@H](C)[C@@H](O)[C@H](NC[C@@]4(O)OC[C@@H](O)[C@@H](O)[C@@H]4O)[C@@H]3O)/C=C/C=C/C=C/C=C/C=C/C=C/C=C/[C@H](C)[C@H]1O)O2 (some centres unmarked) [Compound 131]	5 mg/kg	4 µg/mL (≈ 3.46 µM)
CC1[C@H](C)OC(=O)C[C@H](O)C[C@H](O)CC[C@@H](O)[C@H](O)C[C@H](O)C[C@]2(O)C[C@H](O)C(C(=O)N[C@H]3C(O)O[C@H](CO)[C@@H](O)[C@@H]3O)C(C[C@@H](OC3O[C@H](C)[C@@H](O)[C@H](N)[C@@H]3O)/C=C/C=C/C=C/C=C/C=C/C=C/C=C/[C@H](C)[C@H]1O)O2 (some centres unmarked) [Compound 123]	32 mg/kg	5.3 µg/mL (≈ 4.88 µM)
CC1[C@H](C)OC(=O)C[C@H](O)C[C@H](O)CC[C@@H](O)[C@H](O)C[C@H](O)C[C@]2(O)C[C@H](O)C(C(=O)NCC(O)C(O)C(O)C(O)CO)C(C[C@@H](OC3O[C@H](C)[C@@H](O)[C@H](N)[C@@H]3O)/C=C/C=C/C=C/C=C/C=C/C=C/C=C/[C@H](C)[C@H]1O)O2 (some centres unmarked) [Compound 126]	–	3 µg/mL (≈ 2.76 µM)
CC1[C@H](C)OC(=O)C[C@H](O)C[C@H](O)CC[C@@H](O)[C@H](O)C[C@H](O)C[C@]2(O)C[C@H](O)C(C(=O)N[C@@H]3C(O)O[C@H](CO)[C@@H](O)[C@@H]3O)C(C[C@@H](OC3O[C@H](C)[C@@H](O)[C@H](N)[C@@H]3O)/C=C/C=C/C=C/C=C/C=C/C=C/C=C/[C@H](C)[C@H]1O)O2 (some centres unmarked) [Compound 125]	8 mg/kg	1 µg/mL (≈ 0.921 µM)
CC1[C@H](C)OC(=O)C[C@H](O)C[C@H](O)CC[C@@H](O)[C@H](O)C[C@H](O)C[C@]2(O)C[C@H](O)C(C(=O)N3CCOCC3)C(C[C@@H](OC3O[C@H](C)[C@@H](O)[C@H](NC[C@@]4(O)OC[C@@H](O)[C@H](O)[C@@H]4O)[C@@H]3O)/C=C/C=C/C=C/C=C/C=C/C=C/C=C/[C@H](C)[C@H]1O)O2 (some centres unmarked) [Compound 137]	5 mg/kg	2 µg/mL (≈ 1.73 µM)
CC1[C@H](C)OC(=O)C[C@H](O)C[C@H](O)CC[C@@H](O)[C@H](O)C[C@H](O)C[C@]2(O)C[C@H](O)C(C(=O)NCC(O)CO)C(C[C@@H](OC3O[C@H](C)[C@@H](O)[C@H](NC[C@@]4(O)OC[C@@H](O)[C@@H](O)[C@@H]4O)[C@@H]3O)/C=C/C=C/C=C/C=C/C=C/C=C/C=C/[C@H](C)[C@H]1O)O2 (some centres unmarked) [Compound 105]	–	2 µg/mL (≈ 1.73 µM)
CC1[C@H](C)OC(=O)C[C@H](O)C[C@H](O)CC[C@@H](O)[C@H](O)C[C@H](O)C[C@]2(O)C[C@H](O)C(C(=O)NCC(O)C(O)C(O)C(O)CO)C(C[C@@H](OC3O[C@H](C)[C@@H](O)[C@H](NC[C@@]4(O)OC[C@@H](O)[C@@H](OC5O[C@H](CO)[C@@H](O)[C@H](O)[C@H]5O)[C@@H]4O)[C@@H]3O)/C=C/C=C/C=C/C=C/C=C/C=C/C=C/[C@H](C)[C@H]1O)O2 (some centres unmarked) [Compound 117]	–	8 µg/mL (≈ 5.67 µM)
Cc1cc(NC(=O)C2C3C[C@@H](OC4O[C@H](C)[C@@H](O)[C@H](NC[C@@]5(O)OC[C@@H](O)[C@@H](O)[C@@H]5O)[C@@H]4O)/C=C/C=C/C=C/C=C/C=C/C=C/C=C/[C@H](C)[C@@H](O)C(C)[C@H](C)OC(=O)C[C@H](O)C[C@H](O)CC[C@@H](O)[C@H](O)C[C@H](O)C[C@](O)(C[C@@H]2O)O3)no1 (some centres unmarked) [Compound 102]	–	2.7 µg/mL (≈ 2.31 µM)
CC1[C@H](C)OC(=O)C[C@H](O)C[C@H](O)CC[C@@H](O)[C@H](O)C[C@H](O)C[C@]2(O)C[C@H](O)C(C(=O)N3CCN(CCO)CC3)C(C[C@@H](OC3O[C@H](C)[C@@H](O)[C@H](NC[C@@]4(O)OC[C@@H](O)[C@@H](OC5O[C@H](CO)[C@H](O)[C@H](O)[C@H]5O)[C@@H]4O)[C@@H]3O)/C=C/C=C/C=C/C=C/C=C/C=C/C=C/[C@H](C)[C@H]1O)O2 (some centres unmarked) [Compound 147]	<7.5 mg/kg	2 µg/mL (≈ 1.47 µM)
CC1[C@H](C)OC(=O)C[C@H](O)C[C@H](O)CC[C@@H](O)[C@H](O)C[C@H](O)C[C@]2(O)C[C@H](O)C(C(=O)NN3CCN(C)CC3)C(C[C@@H](OC3O[C@H](C)[C@@H](O)[C@H](NC[C@@]4(O)OC[C@@H](O)[C@@H](O)[C@@H]4O)[C@@H]3O)/C=C/C=C/C=C/C=C/C=C/C=C/C=C/[C@H](C)[C@H]1O)O2 (some centres unmarked) [Compound 100]	–	2 µg/mL (≈ 1.69 µM)
CC1[C@H](C)OC(=O)C[C@H](O)C[C@H](O)CC[C@@H](O)[C@H](O)C[C@H](O)C[C@]2(O)C[C@H](O)C(C(=O)NN3CCN(C)CC3)C(C[C@@H](OC3O[C@H](C)[C@@H](O)[C@H](NC[C@@]4(O)OC[C@@H](O)[C@H](O)[C@@H]4O)[C@@H]3O)/C=C/C=C/C=C/C=C/C=C/C=C/C=C/[C@H](C)[C@H]1O)O2 (some centres unmarked) [Compound 108]	–	4 µg/mL (≈ 3.38 µM)
CC1[C@H](C)OC(=O)C[C@H](O)C[C@H](O)CC[C@@H](O)[C@H](O)C[C@H](O)C[C@]2(O)C[C@H](O)C(C(=O)NCCc3ccccn3)C(C[C@@H](OC3O[C@H](C)[C@@H](O)[C@H](NC[C@@]4(O)OC[C@@H](O)[C@@H](OC5O[C@H](CO)[C@@H](O)[C@H](O)[C@H]5O)[C@@H]4O)[C@@H]3O)/C=C/C=C/C=C/C=C/C=C/C=C/C=C/[C@H](C)[C@H]1O)O2 (some centres unmarked) [Compound 116]	–	8 µg/mL (≈ 5.91 µM)
CC1[C@H](C)OC(=O)C[C@H](O)C[C@H](O)CC[C@@H](O)[C@H](O)C[C@H](O)C[C@]2(O)C[C@H](O)C(C(=O)NCCc3ccccn3)C(C[C@@H](OC3O[C@H](C)[C@@H](O)[C@H](NC[C@@]4(O)OC[C@@H](O)[C@H](O)[C@@H]4O)[C@@H]3O)/C=C/C=C/C=C/C=C/C=C/C=C/C=C/[C@H](C)[C@H]1O)O2 (some centres unmarked) [Compound 109]	–	2 µg/mL (≈ 1.68 µM)
